A word on the IC50: it is the concentration that inhibits the measured activity by half. A low value points to greater potency.

For one test, the target named is JH2 domain of human Tyk2 (Homo sapiens (Human), UniProt P29597). The experiment in a line: JH2 Biochemical Assay (TR-FRET probe displacement). It counts as binding. A general note: In TR-FRET formats the signal depends on donor and acceptor labels being close together.
Another test has as its target Tyk2 (Homo sapiens (Human), UniProt P29597). The experiment in a line: pSTAT4 Cell Assay (MSD, NK92 cells). In kind it is cell-based.
[1] abbreviates: TR-FRET probe displacement, JH2 domain of human Tyk2.
The mark [2] stands for this setting: JH2 domain of human Tyk2, TR-FRET probe displacement.
The mark [3] stands for this setting: TR-FRET probe displacement, JH2 domain.

Read-outs that look alike come from different tables or passages of the source.

Tyk2, sequence (P29597 whole entry, the tested form may be a part): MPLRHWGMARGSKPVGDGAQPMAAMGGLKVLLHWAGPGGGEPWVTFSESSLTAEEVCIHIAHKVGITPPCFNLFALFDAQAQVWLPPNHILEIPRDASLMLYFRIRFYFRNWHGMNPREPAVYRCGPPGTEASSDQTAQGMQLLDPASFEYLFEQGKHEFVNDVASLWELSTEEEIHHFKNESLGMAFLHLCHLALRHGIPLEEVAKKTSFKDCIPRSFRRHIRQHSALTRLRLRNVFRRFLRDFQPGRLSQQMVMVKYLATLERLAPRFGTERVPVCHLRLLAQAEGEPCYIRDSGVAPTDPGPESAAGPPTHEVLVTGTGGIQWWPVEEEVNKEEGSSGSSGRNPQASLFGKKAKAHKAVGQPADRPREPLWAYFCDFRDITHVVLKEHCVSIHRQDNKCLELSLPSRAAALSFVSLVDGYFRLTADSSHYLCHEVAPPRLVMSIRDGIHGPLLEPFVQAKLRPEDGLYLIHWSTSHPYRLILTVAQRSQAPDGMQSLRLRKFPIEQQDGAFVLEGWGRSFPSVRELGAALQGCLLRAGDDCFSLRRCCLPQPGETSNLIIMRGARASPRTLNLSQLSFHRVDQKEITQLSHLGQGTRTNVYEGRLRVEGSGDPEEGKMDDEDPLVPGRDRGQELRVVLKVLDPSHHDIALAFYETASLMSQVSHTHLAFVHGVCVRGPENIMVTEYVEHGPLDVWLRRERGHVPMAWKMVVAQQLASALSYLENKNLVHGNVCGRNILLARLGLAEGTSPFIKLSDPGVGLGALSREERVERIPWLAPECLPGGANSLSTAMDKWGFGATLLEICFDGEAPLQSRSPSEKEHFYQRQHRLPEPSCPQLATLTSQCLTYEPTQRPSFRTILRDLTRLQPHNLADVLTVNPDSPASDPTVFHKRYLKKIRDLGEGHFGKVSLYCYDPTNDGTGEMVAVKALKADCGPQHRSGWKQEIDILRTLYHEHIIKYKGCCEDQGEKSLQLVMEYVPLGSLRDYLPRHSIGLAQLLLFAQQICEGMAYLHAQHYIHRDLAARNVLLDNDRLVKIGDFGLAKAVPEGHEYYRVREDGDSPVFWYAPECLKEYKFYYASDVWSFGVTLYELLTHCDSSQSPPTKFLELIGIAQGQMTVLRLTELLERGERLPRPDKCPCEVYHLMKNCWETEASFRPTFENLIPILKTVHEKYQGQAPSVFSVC
JH2 domain of human Tyk2, sequence (P29597 575-876): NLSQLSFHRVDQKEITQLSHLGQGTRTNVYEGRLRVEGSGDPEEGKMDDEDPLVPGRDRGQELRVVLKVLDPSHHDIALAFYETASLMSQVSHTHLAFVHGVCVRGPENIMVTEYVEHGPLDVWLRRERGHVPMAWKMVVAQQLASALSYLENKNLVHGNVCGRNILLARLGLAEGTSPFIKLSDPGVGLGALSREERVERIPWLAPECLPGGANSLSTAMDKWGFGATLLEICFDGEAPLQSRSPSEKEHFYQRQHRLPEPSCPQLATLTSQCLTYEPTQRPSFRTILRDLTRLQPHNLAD

Take `COCCNc1cncc(-c2cnc(NC(C)=O)cc2Nc2ccnc(C(C)(F)F)n2)n1` [Example 274, N-(4-((2-(1,1-difluoroethyl)pyrimidin-4-yl)amino)-5-(6-((2-methoxyethyl)amino)pyrazin-2-yl)pyridin-2-yl)acetamide]: the figures for the IC50 on JH2 domain of human Tyk2 (setting [1]) and against Tyk2 (MSD) were at most 10 nM and 10 to 100 nM, respectively.

As for `COc1cccc(-c2cnc(NC(C)=O)cc2Nc2cc(C)nc(C(C)(F)F)n2)n1` [Example 635, N-(4′-((2-(1,1-difluoroethyl)-6-methylpyrimidin-4-yl)amino)-6-methoxy-[2,3′-bipyridin]-6′-yl)acetamide], the IC50 at JH2 domain of human Tyk2 (setting [2]) and against Tyk2 (MSD) was at most 10 nM throughout.

As for `CCOc1cnc(NC(C)=O)cc1Nc1ccc(-c2ccn(C)n2)c(OC)n1` [Example 491, N-(5-ethoxy-4-((6-methoxy-5-(1-methyl-1H-pyrazol-3-yl)pyridin-2-yl)amino)pyridin-2-yl)acetamide], the IC50 on JH2 domain of human Tyk2 (setting [2]) was 10 to 100 nM; against Tyk2 (MSD), at least 1000 nM.

For the compound `COCCn1cnc(-c2cnc(NC(C)=O)cc2Nc2cc(C)nc(C(C)(F)F)n2)n1` [Example 263, N-(4-((2-(1,1-difluoroethyl)-6-methylpyrimidin-4-yl)amino)-5-(1-(2-methoxyethyl)-1H-1,2,4-triazol-3-yl)pyridin-2-yl)acetamide], the IC50 on JH2 domain of human Tyk2 (setting [1]) is at most 10 nM; at Tyk2 (MSD), 100 to 1000 nM.

As to `COCC(C)Oc1cnc(NC(C)=O)cc1Nc1cc(C)nc(C(C)(F)F)n1` (stereo not shown) [Example 59, N-(4-((2-(1,1-difluoroethyl)-6-methylpyrimidin-4-yl)amino)-5-((1-methoxypropan-2-yl)oxy)pyridin-2-yl)acetamide], the IC50 on JH2 domain of human Tyk2 (setting [1]) was at most 10 nM; on Tyk2 (MSD) it was 100 to 1000 nM.

As to `CC(=O)Nc1cc(Nc2ccnc(C(C)(F)F)n2)c(-c2ccc(CN3CCCC3)cn2)cn1` [Example 878, N-(4′-((2-(1,1-difluoroethyl)pyrimidin-4-yl)amino)-5-(pyrrolidin-1-ylmethyl)-[2,3′-bipyridin]-6′-yl)acetamide], the IC50 on JH2 domain of human Tyk2 (setting [3]) and against Tyk2 was at most 10 nM each time.

As to `COc1cnc(Oc2cnc(NC(C)=O)cc2Nc2cc(C)nc(C(C)(F)F)n2)cn1` [Example 356, N-(4-((2-(1,1-difluoroethyl)-6-methylpyrimidin-4-yl)amino)-5-((5-methoxypyrazin-2-yl)oxy)pyridin-2-yl)acetamide], the IC50 on JH2 domain of human Tyk2 (setting [1]) and against Tyk2 (MSD) was at least 1000 nM throughout.

For `CC(=O)Nc1cc(Nc2ccnc(C(C)(F)F)n2)c(-c2ccc(OC(F)F)nn2)cn1` [Example 858, N-(4-((2-(1,1-difluoroethyl)pyrimidin-4-yl)amino)-5-(6-(difluoromethoxy)pyridazin-3-yl)pyridin-2-yl)acetamide], the IC50 at JH2 domain of human Tyk2 (setting [3]) is at most 10 nM; against Tyk2 it was 10 to 100 nM.

Consider `CC(=O)Nc1cc(Nc2cc(C)nc(C(C)(F)F)n2)c(-c2cc(C)n(C)n2)cn1` [Example 619, N-(4-((2-(1,1-difluoroethyl)-6-methylpyrimidin-4-yl)amino)-5-(1,5-dimethyl-1H-pyrazol-3-yl)pyridin-2-yl)acetamide], for which the IC50 at JH2 domain of human Tyk2 (setting [2]) and against Tyk2 (MSD) was at most 10 nM each time.

In the case of `CC(=O)Nc1cc(Nc2ccnc(C3CCOC3)n2)c(-c2ccn(C)n2)cn1` (stereo not shown) [Example 556, N-(5-(1-methyl-1H-pyrazol-3-yl)-4-((2-(tetrahydrofuran-3-yl)pyrimidin-4-yl)amino)pyridin-2-yl)acetamide], the IC50 on JH2 domain of human Tyk2 (setting [2]) is at most 10 nM; against Tyk2 (MSD), 10 to 100 nM.

As for `CC(=O)Nc1cc(Nc2cc(C)nc(C(C)(F)F)n2)c(-c2ncc(C#N)cc2F)cn1` [Example 632, N-(5-cyanO4′-((2-(1,1-difluoroethyl)-6-methylpyrimidin-4-yl)amino)-3-fluorO[2,3′-bipyridin]-6′-yl)acetamide], the IC50 on JH2 domain of human Tyk2 (setting [2]) was 10 to 100 nM; against Tyk2 (MSD), at least 1000 nM.

In the case of `CC(=O)Nc1cc(Nc2cc(C)nc(C(C)(F)F)n2)c(OCc2c(C)ncnc2C)cn1` [Example 330, N-(4-((2-(1,1-difluoroethyl)-6-methylpyrimidin-4-yl)amino)-5-((4,6-dimethylpyrimidin-5-yl)methoxy)pyridin-2-yl)acetamide], the IC50 is 10 to 100 nM on JH2 domain of human Tyk2 (setting [1]) and at least 1000 nM at Tyk2 (MSD).

For the compound `CCC(F)(F)c1cnc(NC(C)=O)cc1Nc1cc(C)nc(C(C)(F)F)n1` [Example 154, N-(4-((2-(1,1-difluoroethyl)-6-methylpyrimidin-4-yl)amino)-5-(1,1-difluoropropyl)pyridin-2-yl)acetamide], the IC50 on JH2 domain of human Tyk2 (setting [1]) is 10 to 100 nM; on Tyk2 (MSD) it was at least 1000 nM.

Take `CC(=O)Nc1cc(Nc2ccnc(C(C)(F)F)n2)c(-c2cc(N(C)C)ncn2)cn1` [Example 256, N-(4-((2-(1,1-difluoroethyl)pyrimidin-4-yl)amino)-5-(6-(dimethylamino)pyrimidin-4-yl)pyridin-2-yl)acetamide]: the IC50 was 10 to 100 nM at JH2 domain of human Tyk2 (setting [1]) and at least 1000 nM at Tyk2 (MSD).

Regarding `CC(=O)Nc1cc(Nc2ccnc(C(C)(F)F)n2)c(-c2ccc(CNC3CCOCC3)cn2)cn1` [Example 883], the IC50 on JH2 domain of human Tyk2 (setting [3]) and against Tyk2 was at most 10 nM in each case.

Turning to `CC(=O)Nc1cc(Nc2cc(OC3CC3)nc(C(C)(F)F)n2)c(Oc2cnn(C)c2)cn1` [Example 301, N-(4-((6-cyclopropoxy-2-(1,1-difluoroethyl)pyrimidin-4-yl)amino)-5-((1-methyl-1H-pyrazol-4-yl)oxy)pyridin-2-yl)acetamide], the IC50 on JH2 domain of human Tyk2 (setting [1]) is 10 to 100 nM; against Tyk2 (MSD) it was 100 to 1000 nM.

Turning to `CC(=O)Nc1cc(Nc2cc(C)nc(C(C)(F)F)n2)c(OCC(F)C(C)C)cn1` (stereo not shown) [Example 429, N-(4-((2-(1,1-difluoroethyl)-6-methylpyrimidin-4-yl)amino)-5-(2-fluoro-3-methylbutoxy)pyridin-2-yl)acetamide], the IC50 on JH2 domain of human Tyk2 (setting [2]) is at most 10 nM; against Tyk2 (MSD), 10 to 100 nM.

On to `CC(=O)Nc1cc(Nc2cc(C)nc(C(C)(F)F)n2)c(-c2nc3n(n2)CCOC3)cn1` [Example 760, N-(4-((2-(1,1-difluoroethyl)-6-methylpyrimidin-4-yl)amino)-5-(5,6-dihydrO8H-[1,2,4]triazolo[5,1-c][1,4]oxazin-2-yl)pyridin-2-yl)acetamide], for which the IC50 was at most 10 nM on JH2 domain of human Tyk2 (setting [3]) and 10 to 100 nM against Tyk2.

`CC(=O)Nc1cc(Nc2cc(C)nc(C(C)(F)F)n2)c(OCC2CN(C)C2)cn1` [Example 506, N-(4-((2-(1,1-difluoroethyl)-6-methylpyrimidin-4-yl)amino)-5-((1-methylazetidin-3-yl)methoxy)pyridin-2-yl)acetamide]: the results for the IC50 on JH2 domain of human Tyk2 (setting [2]) and against Tyk2 (MSD) were at most 10 nM and 100 to 1000 nM, respectively.

Consider `COc1cncc(-c2cc(Nc3cc(NC(C)=O)ncc3OC)nc(C(C)(F)F)n2)c1` [Example 296, N-(4-((2-(1,1-difluoroethyl)-6-(5-methoxypyridin-3-yl)pyrimidin-4-yl)amino)-5-methoxypyridin-2-yl)acetamide], for which the figures for the IC50 on JH2 domain of human Tyk2 (setting [1]) and on Tyk2 (MSD) were 10 to 100 nM and 100 to 1000 nM, respectively.

As for `COc1ccc(-c2cnc(NC(C)=O)cc2Nc2cc(OC3CC3)nc(C(C)(F)F)n2)nn1` [Example 833, N-(4-((6-cyclopropoxy-2-(1,1-difluoroethyl)pyrimidin-4-yl)amino)-5-(6-methoxypyridazin-3-yl)pyridin-2-yl)acetamide], the IC50 at JH2 domain of human Tyk2 (setting [3]) and against Tyk2 was at most 10 nM in each case.

Turning to `COC(C)(C)COc1cnc(NC(C)=O)cc1Nc1cc(C)nc(C(C)(F)F)n1` [Example 492, N-(4-((2-(1,1-difluoroethyl)-6-methylpyrimidin-4-yl)amino)-5-(2-methoxy-2-methylpropoxy)pyridin-2-yl)acetamide], the results for the IC50 at JH2 domain of human Tyk2 (setting [2]) and on Tyk2 (MSD) were at most 10 nM and 10 to 100 nM, respectively.

As to `CC(=O)Nc1cc(Nc2cc(C)nc(C(C)(F)F)n2)c(-c2cc(OC(C)C)ncn2)cn1` [Example 242, N-(4-((2-(1,1-difluoroethyl)-6-methylpyrimidin-4-yl)amino)-5-(6-isopropoxypyrimidin-4-yl)pyridin-2-yl)acetamide], the IC50 at JH2 domain of human Tyk2 (setting [1]) was at most 10 nM; against Tyk2 (MSD), 10 to 100 nM.

Turning to `CC(=O)Nc1cc(Nc2cc(C)nc(C(C)(F)F)n2)c(-c2cc3n(n2)CCNC3)cn1` [Example 282, N-(4-((2-(1,1-difluoroethyl)-6-methylpyrimidin-4-yl)amino)-5-(4,5,6,7-tetrahydropyrazolo[1,5-a]pyrazin-2-yl)pyridin-2-yl)acetamide], the IC50 at JH2 domain of human Tyk2 (setting [1]) and against Tyk2 (MSD) was at most 10 nM in each case.

With `CC(=O)Nc1cc(Nc2cc(C)nc(C(C)(F)F)n2)c(-c2ccc(S(C)(=O)=O)cn2)cn1` [Example 543, N-(4′-((2-(1,1-difluoroethyl)-6-methylpyrimidin-4-yl)amino)-5-(methylsulfonyl)-[2,3′-bipyridin]-6′-yl)acetamide], the IC50 on JH2 domain of human Tyk2 (setting [2]) and against Tyk2 (MSD) was at most 10 nM each time.

Turning to `CC(=O)Nc1cc(Nc2cc(C)nc(C(C)(F)F)n2)c(-c2cc(C#N)ccn2)cn1` [Example 631, N-(4-cyanO4′-((2-(1,1-difluoroethyl)-6-methylpyrimidin-4-yl)amino)-[2,3′-bipyridin]-6′-yl)acetamide], the IC50 was at most 10 nM at JH2 domain of human Tyk2 (setting [2]) and 10 to 100 nM against Tyk2 (MSD).

With `CC(=O)Nc1cc(Nc2cc(C)nc(C(C)(F)F)n2)c(-c2ccc(CN3CCOCC3)cn2)cn1` [Example 649, N-(4′-((2-(1,1-difluoroethyl)-6-methylpyrimidin-4-yl)amino)-5-(morpholinomethyl)-[2,3′-bipyridin]-6′-yl)acetamide], the IC50 on JH2 domain of human Tyk2 (setting [2]) and on Tyk2 (MSD) was at most 10 nM each time.

Regarding `CC(=O)Nc1cc(Nc2cc(C)nc(C(C)(F)F)n2)c(-c2csc(C)n2)cn1` [Example 606, N-(4-((2-(1,1-difluoroethyl)-6-methylpyrimidin-4-yl)amino)-5-(2-methylthiazol-4-yl)pyridin-2-yl)acetamide], the IC50 at JH2 domain of human Tyk2 (setting [2]) and against Tyk2 (MSD) was at most 10 nM throughout.

As to `COCC(C)COc1cnc(NC(C)=O)cc1Nc1cc(C)nc(C(C)(F)F)n1` (stereo not shown) [Example 440, N-(4-((2-(1,1-difluoroethyl)-6-methylpyrimidin-4-yl)amino)-5-(3-methoxy-2-methylpropoxy)pyridin-2-yl)acetamide], the IC50 is at most 10 nM on JH2 domain of human Tyk2 (setting [2]) and 10 to 100 nM against Tyk2 (MSD).

These data come from US20260028365A1 (BIOGEN MA INC., priority 2022, published 2026).
